Data on one compound can be found in ChEMBL document CHEMBL3638693, “Pyrazole compound and pharmaceutical use thereof” (2014).

The IC50 is the midpoint of a concentration-inhibition curve.

The assay concerns the target T1, Sodium/glucose cotransporter 1 (Homo sapiens, UniProt P13866).
T1 sequence (P13866 whole entry): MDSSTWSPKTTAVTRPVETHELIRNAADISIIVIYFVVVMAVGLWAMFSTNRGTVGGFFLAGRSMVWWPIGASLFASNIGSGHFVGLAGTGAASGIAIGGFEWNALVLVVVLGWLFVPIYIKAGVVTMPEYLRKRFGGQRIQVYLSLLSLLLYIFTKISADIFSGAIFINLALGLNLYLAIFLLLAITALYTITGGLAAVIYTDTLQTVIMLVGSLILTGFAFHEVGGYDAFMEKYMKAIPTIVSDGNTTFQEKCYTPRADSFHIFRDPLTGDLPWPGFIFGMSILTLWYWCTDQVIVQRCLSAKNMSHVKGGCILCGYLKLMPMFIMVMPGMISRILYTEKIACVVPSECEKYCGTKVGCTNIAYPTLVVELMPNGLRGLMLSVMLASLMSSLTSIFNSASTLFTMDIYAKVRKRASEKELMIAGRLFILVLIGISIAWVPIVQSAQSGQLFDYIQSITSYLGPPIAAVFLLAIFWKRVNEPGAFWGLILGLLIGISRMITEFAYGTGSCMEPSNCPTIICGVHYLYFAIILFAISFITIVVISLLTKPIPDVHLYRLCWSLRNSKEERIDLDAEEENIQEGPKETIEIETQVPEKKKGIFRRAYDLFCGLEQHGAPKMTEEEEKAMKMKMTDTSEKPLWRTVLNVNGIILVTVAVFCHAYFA
In words: Inhibition Assay: The stable cell line expressing human SGLT1 was seeded at 5x10^4 cells/well on BioCoat Poly-D-Lysine 96 well plate with Lid (Becton Dickinson and Company) and cultured at 37 C. under 5% CO2 overnight. The medium was replaced with 100 uL/well of a Na (+) buffer (140 mM choline chloride, 2 mM KCl, 1 mM MgCl2, 1 mM CaCl2, 10 mM HEPES, 5 mM Tris, pH7.4) followed by incubation for 20 minutes at 37 C. under 5% CO2. After removing the Na (+) buffer, a test compound solution which was prepared from Na (+) buffer (140 mM NaCl, 2 mM KCl, 1 mM MgCl2, 1 mM CaCl2, 10 mM HEPES, 5 mM Tris, pH7.4) containing BSA was added thereto at 40 uL/well. In addition, Na (+) buffer containing 8 kBq of 14C-AMG and 2 mM AMG was added thereto at 40 uL/well, and was mixed well. Na (+) buffer containing BSA was added to a blank well at 40 uL/well and additionally adding a Na (+) buffer containing 8 kBq of 14C-AMG and 2 mM AMG, and was mixed well.

For the compound `O=C1C[C@H](C(=O)Nc2cc(-c3cccc(COCC(F)(F)F)c3)n(-c3ccc(F)cc3)n2)CN1`, the IC50 is 22 nM.
